The record followed here is ChEMBL document CHEMBL5143676, “Piezo-Type Mechanosensitive Ion Channel Component 1 (Piezo1): A Promising Therapeutic Target and Its Modulators” (J Med Chem, 2022).

In assay [1] the target is T1, Piezo-type mechanosensitive ion channel component 1 (Homo sapiens, UniProt Q92508). As to the kind of experiment: Inhibition of Piezo1 (unknown origin) transfected in human HEK293 cells assessed as rightward shift in pressure-gating curve at 50 mV at 1 to 4 uM. It is filed as cell-based. The conditions noted are these: dose 1-4 µM.
T1 sequence (Q92508 whole entry): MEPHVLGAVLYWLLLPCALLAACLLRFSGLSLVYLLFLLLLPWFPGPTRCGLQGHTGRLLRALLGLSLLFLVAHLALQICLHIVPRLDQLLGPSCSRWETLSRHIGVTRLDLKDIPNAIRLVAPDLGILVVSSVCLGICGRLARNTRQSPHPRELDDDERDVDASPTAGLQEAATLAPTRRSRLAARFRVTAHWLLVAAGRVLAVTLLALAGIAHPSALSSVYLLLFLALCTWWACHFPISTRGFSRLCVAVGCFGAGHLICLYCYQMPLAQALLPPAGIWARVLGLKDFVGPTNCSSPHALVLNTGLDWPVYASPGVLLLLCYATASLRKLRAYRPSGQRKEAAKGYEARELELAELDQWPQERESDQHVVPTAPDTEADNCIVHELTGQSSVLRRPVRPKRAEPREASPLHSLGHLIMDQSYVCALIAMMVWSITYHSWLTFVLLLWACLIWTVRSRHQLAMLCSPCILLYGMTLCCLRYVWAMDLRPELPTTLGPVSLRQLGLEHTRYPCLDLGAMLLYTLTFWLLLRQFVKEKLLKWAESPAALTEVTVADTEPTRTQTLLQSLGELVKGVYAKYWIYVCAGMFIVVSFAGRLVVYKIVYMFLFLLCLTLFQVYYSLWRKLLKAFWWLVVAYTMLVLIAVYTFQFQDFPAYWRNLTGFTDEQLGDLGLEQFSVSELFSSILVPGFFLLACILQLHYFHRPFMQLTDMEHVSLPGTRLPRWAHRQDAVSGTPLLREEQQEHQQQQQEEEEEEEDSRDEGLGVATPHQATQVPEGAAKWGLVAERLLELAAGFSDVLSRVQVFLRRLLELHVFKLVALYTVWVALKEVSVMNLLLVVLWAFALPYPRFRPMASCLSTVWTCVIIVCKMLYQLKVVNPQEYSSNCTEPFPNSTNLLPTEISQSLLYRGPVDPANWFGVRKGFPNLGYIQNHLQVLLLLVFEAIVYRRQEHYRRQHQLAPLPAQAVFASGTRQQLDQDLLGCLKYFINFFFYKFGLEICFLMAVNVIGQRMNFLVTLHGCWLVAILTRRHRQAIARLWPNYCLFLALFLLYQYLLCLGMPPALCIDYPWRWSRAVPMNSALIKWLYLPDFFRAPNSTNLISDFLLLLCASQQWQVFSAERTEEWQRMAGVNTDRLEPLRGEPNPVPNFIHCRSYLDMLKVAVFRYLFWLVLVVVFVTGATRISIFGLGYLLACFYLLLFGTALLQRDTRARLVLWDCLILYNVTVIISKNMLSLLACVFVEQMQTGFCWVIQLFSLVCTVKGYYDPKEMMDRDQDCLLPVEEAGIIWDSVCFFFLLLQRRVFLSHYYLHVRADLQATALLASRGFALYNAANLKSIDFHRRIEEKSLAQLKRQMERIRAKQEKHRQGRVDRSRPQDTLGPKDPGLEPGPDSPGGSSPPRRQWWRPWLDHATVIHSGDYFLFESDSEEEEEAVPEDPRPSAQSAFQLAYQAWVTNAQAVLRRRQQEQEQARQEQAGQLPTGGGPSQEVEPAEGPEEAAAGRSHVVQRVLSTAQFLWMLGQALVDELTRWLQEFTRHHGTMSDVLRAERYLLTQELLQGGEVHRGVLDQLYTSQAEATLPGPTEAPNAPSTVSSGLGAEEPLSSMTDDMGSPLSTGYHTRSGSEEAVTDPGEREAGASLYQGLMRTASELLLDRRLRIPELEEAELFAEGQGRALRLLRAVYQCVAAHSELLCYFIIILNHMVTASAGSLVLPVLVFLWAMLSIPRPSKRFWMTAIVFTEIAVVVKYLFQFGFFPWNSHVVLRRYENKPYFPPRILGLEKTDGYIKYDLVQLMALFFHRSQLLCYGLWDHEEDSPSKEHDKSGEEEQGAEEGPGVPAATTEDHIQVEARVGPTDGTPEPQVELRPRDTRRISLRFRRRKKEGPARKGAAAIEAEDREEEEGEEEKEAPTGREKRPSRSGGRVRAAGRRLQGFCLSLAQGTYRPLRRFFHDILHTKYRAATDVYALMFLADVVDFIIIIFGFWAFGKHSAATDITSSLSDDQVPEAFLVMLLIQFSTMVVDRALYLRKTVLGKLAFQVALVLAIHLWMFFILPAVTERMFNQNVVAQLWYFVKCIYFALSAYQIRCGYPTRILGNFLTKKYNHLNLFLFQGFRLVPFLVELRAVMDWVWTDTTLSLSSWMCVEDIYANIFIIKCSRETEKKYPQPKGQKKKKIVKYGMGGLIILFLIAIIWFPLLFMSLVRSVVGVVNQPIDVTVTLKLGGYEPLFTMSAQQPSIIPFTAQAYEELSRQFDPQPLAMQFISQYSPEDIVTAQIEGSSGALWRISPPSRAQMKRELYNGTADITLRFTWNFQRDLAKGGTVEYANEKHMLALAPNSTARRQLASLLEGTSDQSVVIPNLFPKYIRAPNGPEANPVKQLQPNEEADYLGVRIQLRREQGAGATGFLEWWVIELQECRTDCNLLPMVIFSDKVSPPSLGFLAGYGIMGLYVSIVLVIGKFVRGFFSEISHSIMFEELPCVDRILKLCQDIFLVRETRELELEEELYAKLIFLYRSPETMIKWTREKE
Assay [2] has as its target T1, Piezo-type mechanosensitive ion channel component 1. As to the kind of experiment: Binding affinity to Piezo1 (unknown origin) transfected in human HEK293 cells assessed as equilibrium constant at 40 mmHg/+50 mV. It is filed as cell-based.
Assay [3] concerns the target T2, Piezo-type mechanosensitive ion channel component 1 (Mus musculus, UniProt E2JF22). As to the kind of experiment: Agonist activity at mouse Piezo1 transfected in human HEK293T cells by FLIPR assay. The class given is cell-based.
Assay [4] has as its target T1, Piezo-type mechanosensitive ion channel component 1. As to the kind of experiment: Agonist activity at human Piezo1 transfected in human HEK293T cells by FLIPR assay. The class given is cell-based.
For assay [5], the target named is T2, Piezo-type mechanosensitive ion channel component 1. The experiment in a line: Inhibition of mouse Piezo1.
The target is the same in assay [6]. As to the kind of experiment: Binding affinity to mouse Piezo1 assessed as dissociation constant by SPR assay.

Bridge positions count the residues as written; N and C are the ends. Peptide text beside a SMILES is read from it.

T2 sequence (E2JF22 whole entry): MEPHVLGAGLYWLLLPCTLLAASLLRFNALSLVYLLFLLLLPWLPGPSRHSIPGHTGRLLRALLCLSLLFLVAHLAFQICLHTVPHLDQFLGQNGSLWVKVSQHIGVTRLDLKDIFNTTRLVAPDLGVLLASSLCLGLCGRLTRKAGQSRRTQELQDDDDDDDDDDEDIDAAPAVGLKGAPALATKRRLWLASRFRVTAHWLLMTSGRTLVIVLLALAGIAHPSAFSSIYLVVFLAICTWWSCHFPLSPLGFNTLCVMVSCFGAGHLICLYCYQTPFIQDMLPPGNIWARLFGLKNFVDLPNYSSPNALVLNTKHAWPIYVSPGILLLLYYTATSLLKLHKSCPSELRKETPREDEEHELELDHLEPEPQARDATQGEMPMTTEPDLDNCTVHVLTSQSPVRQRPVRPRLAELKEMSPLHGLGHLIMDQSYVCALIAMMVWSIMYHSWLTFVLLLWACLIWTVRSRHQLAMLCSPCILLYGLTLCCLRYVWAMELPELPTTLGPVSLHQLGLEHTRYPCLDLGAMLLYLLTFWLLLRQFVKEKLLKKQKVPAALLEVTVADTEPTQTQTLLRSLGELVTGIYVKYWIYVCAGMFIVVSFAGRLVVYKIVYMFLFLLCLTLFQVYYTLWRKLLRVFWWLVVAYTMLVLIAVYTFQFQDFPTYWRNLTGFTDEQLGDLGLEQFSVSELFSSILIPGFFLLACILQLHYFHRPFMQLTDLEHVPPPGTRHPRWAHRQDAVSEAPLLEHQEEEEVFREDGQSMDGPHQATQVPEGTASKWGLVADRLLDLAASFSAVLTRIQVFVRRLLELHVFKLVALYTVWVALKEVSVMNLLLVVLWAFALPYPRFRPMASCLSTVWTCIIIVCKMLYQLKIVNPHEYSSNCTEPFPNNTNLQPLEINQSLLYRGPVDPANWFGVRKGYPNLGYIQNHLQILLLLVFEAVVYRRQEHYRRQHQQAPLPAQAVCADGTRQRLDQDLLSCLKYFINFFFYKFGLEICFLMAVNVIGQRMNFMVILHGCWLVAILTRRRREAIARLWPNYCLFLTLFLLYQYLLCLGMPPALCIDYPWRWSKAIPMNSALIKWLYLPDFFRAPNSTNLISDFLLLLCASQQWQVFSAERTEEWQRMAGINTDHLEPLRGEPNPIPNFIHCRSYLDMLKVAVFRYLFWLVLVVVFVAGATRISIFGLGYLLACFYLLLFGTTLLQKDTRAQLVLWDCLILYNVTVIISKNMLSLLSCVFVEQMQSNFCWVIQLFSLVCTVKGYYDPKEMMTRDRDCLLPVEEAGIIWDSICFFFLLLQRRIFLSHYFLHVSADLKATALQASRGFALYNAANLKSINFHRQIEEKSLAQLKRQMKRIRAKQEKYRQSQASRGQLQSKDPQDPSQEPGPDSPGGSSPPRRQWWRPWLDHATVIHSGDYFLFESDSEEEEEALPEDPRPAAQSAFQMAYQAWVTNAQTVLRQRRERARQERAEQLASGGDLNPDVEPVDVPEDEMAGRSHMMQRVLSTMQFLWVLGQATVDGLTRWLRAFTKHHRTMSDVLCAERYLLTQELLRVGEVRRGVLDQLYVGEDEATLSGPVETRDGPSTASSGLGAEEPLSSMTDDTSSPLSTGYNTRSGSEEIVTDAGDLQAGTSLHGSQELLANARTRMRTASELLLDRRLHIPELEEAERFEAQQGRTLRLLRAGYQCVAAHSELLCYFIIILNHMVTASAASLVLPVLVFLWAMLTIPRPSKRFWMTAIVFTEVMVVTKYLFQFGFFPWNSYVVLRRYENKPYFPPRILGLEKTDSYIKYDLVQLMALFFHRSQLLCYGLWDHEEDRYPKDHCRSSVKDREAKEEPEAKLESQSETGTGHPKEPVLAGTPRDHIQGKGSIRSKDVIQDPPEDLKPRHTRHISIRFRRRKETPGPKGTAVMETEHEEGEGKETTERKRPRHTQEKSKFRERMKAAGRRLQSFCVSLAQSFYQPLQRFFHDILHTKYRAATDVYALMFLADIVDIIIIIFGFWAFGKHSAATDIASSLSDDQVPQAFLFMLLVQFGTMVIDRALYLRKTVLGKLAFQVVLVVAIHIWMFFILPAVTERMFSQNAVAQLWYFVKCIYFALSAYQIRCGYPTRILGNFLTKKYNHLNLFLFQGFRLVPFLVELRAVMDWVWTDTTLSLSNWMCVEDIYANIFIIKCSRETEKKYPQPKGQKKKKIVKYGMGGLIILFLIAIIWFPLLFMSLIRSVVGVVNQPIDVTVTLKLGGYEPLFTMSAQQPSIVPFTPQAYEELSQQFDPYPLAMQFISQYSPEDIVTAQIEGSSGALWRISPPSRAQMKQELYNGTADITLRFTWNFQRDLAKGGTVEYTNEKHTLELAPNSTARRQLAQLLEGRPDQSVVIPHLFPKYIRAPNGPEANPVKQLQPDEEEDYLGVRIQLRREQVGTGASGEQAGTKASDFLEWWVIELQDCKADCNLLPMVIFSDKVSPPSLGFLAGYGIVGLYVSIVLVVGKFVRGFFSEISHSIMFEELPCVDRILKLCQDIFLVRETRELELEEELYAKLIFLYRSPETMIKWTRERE

In the case of `CC(C)C[C@@H]1NC(=O)[C@@H](NC(=O)CN)CSSC[C@@H]2NC(=O)[C@@H]3CSSC[C@@H](C(=O)N[C@@H](CC(N)=O)C(=O)N[C@@H](Cc4ccccc4)C(=O)N[C@@H](CO)C(=O)N[C@@H](Cc4ccccc4)C(N)=O)NC(=O)[C@H](CC(C)C)NC(=O)[C@H](CCCCN)NC(=O)[C@H](Cc4ccccc4)NC(=O)[C@H](CC(C)C)NC(=O)[C@H](CCCCN)NC(=O)[C@H](CO)NC(=O)[C@H](CSSC[C@H](NC(=O)[C@H](CCCCN)NC(=O)[C@H](Cc4c[nH]c5ccccc45)NC(=O)[C@H](Cc4c[nH]c5ccccc45)NC(=O)[C@H](Cc4ccccc4)NC(=O)[C@H](CCC(=O)O)NC1=O)C(=O)N[C@@H](CC(N)=O)C(=O)N1CCC[C@H]1C(=O)N[C@@H](CC(N)=O)C(=O)N[C@@H](CC(=O)O)C(=O)N[C@@H](CC(=O)O)C(=O)N[C@@H](CCCCN)C(=O)N3)NC(=O)[C@H](CCCCN)NC(=O)[C@H](CC(C)C)NC(=O)[C@H](CCCCN)NC(=O)[C@@H]1CCCN1C(=O)[C@H](CCCNC(=N)N)NC2=O` (H-GCLEFWWKCNPNDDKCCRPKLKCSKLFKLCNFSF-NH2; disulfide 2-17, 9-23, 16-30), the Activity in assay [1] turned out to be 30 mmHg. In addition, in assay [2], the Ke is 155 nM.
In the case of `Clc1cccc(Cl)c1CSc1nnc(-c2cnccn2)s1`, the 50% effective concentration (EC50) was found to be 17.1 µM in assay [3] and 26.6 µM in assay [4].
In assay [5], `Cc1oc(-c2ccccc2)cc1C(=O)O` yielded a concentration giving a half-maximal response (EC50) of 200 µM.
As to `Cc1oc(-c2cccs2)cc1C(=O)O`, the Kd in assay [6] is 2240 µM.
